Assay results taken from US5349063A, “Pancreatic imaging agents” (priority 1993, dated 1994).

How the values were obtained:
[1] = Pancreas uptake and pancreas to liver ratio in Balb/c mice (radioiodine biodistribution); format: in vivo; conditions: for P/L (percent dose in pancreas / percent dose in liver) / Pancreas uptake (mean percent administered dose per organ): I-125 label, 20 μg i.v., male Balb/c mice, mean ± standard deviation; for pancreas/liver ratios compared with HIPDM: all time periods from 30 minutes to 24 hours
Procedure: The pancreatic uptake and pancreas/liver ratio of I-125 ERC 9 (prepared as in Examples 1 and 2) and I-125-HIPDM were compared in mice. Male Balb/c mice were injected via the tail vein with I-125 ERC 9 or I-125 HIPDM (20 μg, 0.01 MBq, in 0.1 ml). At specific time periods from 5 minutes to 24 hours after administration, six mice from each group were killed by CO2 asphyxiation. Blood samples were taken and various organs (including the pancreas and liver) were removed. The radioiodine uptake in various organs was determined by counting in a gamma spectrometric detector. The amount of radioactivity in each organ or tissue was compared to that in a standard of the injected dose. The percent uptake was calculated for each organ of each animal. The pancreas to liver ratio was calculated by dividing the percent uptake in the pancreas by the percent uptake in the liver. The mean uptake in the organs and the mean pancreas/liver ratio was calculated for the animals at each time period.
The pancreatic uptake and pancreas/liver ratios of I-125 ERC 46 and I-125 HIPDM were compared in Balb/c mice as described in Example 6.
The pancreas uptake and pancreas/liver ratios of I-125 ERC 90 and I-125 HIPDM were compared in Balb/c mice as described in Example 6.
The pancreas uptakes and pancreas/liver ratios of I-125 ERC 94 and I-125 HIPDM were compared in Balb/c mice as described in Example 6.

[2] = rats and mice; Yamamoto et al.; cited from earlier work
[3] = cited from earlier work
Toxicity in mice = format: in vivo, Balb/c mice
Procedure: It was assumed that the maximum human dose of ERC 9 would be 2 mg per 50 kg (or […]) body weight. Mouse studies were done at a rate of 500 times the maximum human dose on a weight basis. Five Balb/c male and five Balb/c female mice were injected via the tail vein with 0,005 ml per gram body weight of a solution of ERC 9 in water (4 mg per ml) on each of three occasions one day apart. The animals were maintained for 30 days.

[4] = Human radiation dosimetry of I-123 ERC 9 estimated from tissue distribution in mice (MIRD); design: species or system human (from Balb/c mouse data); conditions: MIRD calculation from mouse tissue distribution
Procedure: The human radiation dose from I-123 ERC 9 was estimated from tissue distribution data in mice.
Male Balb/c mice were injected via the tail vein with I-125 ERC 9 (20 μg, 0.01 MBq, in 0.1 ml). At specific time periods from 5 minutes to 24 hours after administration, six mice were killed by CO2 asphyxiation. Blood samples were taken and various organs were removed. The radioiodine uptake in various organs and tissues was determined by counting in a gamma spectrometric detector. The amount of radioactivity in each organ or tissue was compared to that in a standard of the injected dose. The percent uptake was calculated for each organ of each animal. The mean percent uptake in the organs was calculated for the animals at each time period.
The mean uptakes for each of the organs and tissues were plotted versus time on semilogarithmic paper. From these plots, the uptake and clearance half times for each of the organs and tissues were calculated.
Using these values and the MIRD (Society of Nuclear Medicine) method of dosimetry calculations, the human radiation doses from I-123 were calculated.

[5] = Pancreatic imaging in human volunteers (planar and SPECT gamma camera); format: in vivo
Procedure: Imaging studies have been done in two human volunteers using I-123 ERC 9.
I-123 ERC 9 (185 MBq, 2 mg), prepared as in Example 2, was injected intravenously into the two volunteers. Using a gamma camera with SPECT (Single Photon Emission Computed Tomography) capability, planar images were obtained at 30 minutes, 1.5 hours, 3 hours and 24 hours after injection. SPECT images were obtained at 3-4 hours after injection.

[6] = cited from earlier work; remark: listed apart in the source
[7] = 30 minutes after administration
[8] = human clinical studies, Yamamoto et al.
[9] = 4 and 24 hours after administration
[10] = 500 times maximum human dose, i.v., three occasions one day apart, maintained 30 days
[11] = I-123 ERC 9, 185 MBq, 2 mg i.v.
[12] = planar and SPECT images, 3-4 hours

Row | Compound | P/L (percent dose in pancreas / percent dose in liver) ([1]; 5 minutes after administration) | P/L (percent dose in pancreas / percent dose in liver) [1, 7] | P/L (percent dose in pancreas / percent dose in liver) ([1]; 1 hour after administration) | P/L (percent dose in pancreas / percent dose in liver) ([1]; 4 hours after administration) | P/L (percent dose in pancreas / percent dose in liver) ([1]; 24 hours after administration) | pancreas uptake compared with HIPDM [1, 9] | pancreas/liver ratios compared with HIPDM [1] | pancreas uptake compared with HIPDM ([1]; early time periods) | Pancreas uptake (mean percent administered dose per organ) ([1]; 5 minutes after administration) | Pancreas uptake (mean percent administered dose per organ) [1, 7] | Pancreas uptake (mean percent administered dose per organ) ([1]; 1 hour after administration) | Pancreas uptake (mean percent administered dose per organ) ([1]; 4 hours after administration) | Pancreas uptake (mean percent administered dose per organ) ([1]; 24 hours after administration) | further results
1 | Cc1cc([125I])cc(CN(C)CCCN2CCCC2)c1O [ERC 46, N[3(1-Pyrrolidino)propyl]-N-methyl-2-hydroxy-3-methyl-5-iodobenzylamine] | 0.22 ± 0.04 | 0.54 ± 0.09 | 0.78 ± 0.20 | 2.11 ± 0.32 | 7.47 ± 1.40 | higher pancreas uptake than did HIPDM | significantly higher | lower | 1.34 ± 0.32 percent administered dose per | 4.14 ± 0.68 percent administered dose per | 3.74 ± 0.69 percent administered dose per | 5.95 ± 0.78 percent administered dose per | 4.91 ± 0.43 percent administered dose per | –
2 | Cc1cc([125I])cc(CN(C)CCCN2CCOCC2)c1O [ERC 9, N[3(4-morpholino)propyl]-N-methyl-2-hydroxy-3-methyl-5-iodobenzylamine] | 0.40 ± 0.10 | 0.61 ± 0.05 | 0.66 ± 0.14 | 2.02 ± 0.67 | 2.54 ± 0.34 | – | – | – | 2.08 ± 0.90 percent administered dose per organ | 4.52 ± 0.75 percent administered dose per organ | 4.79 ± 0.70 percent administered dose per organ | 6.60 ± 1.84 percent administered dose per organ | 3.30 ± 0.53 percent administered dose per organ | mean pancreas/liver ratio compared with HIPDM ([1]; at all time intervals): greater than that for HIPDM; histological examination of various organs and tissues (Toxicity in mice; [10]): no changes that could be attributed to chemical toxicity; immediate or delayed toxicity (Toxicity in mice; [10]): no indication of immediate or delayed toxicity; chemical toxicity (Toxicity in mice; animal studies): low chemical toxicity; human radiation dose to the pancreas [4]: approximately 15.5 mGy per 111 MBq; visualization of the pancreas ([5]; 24 hours after injection): less than optimal although still present; quality of pancreatic images ([5]; FIGS. 2 and 3, human volunteers): High quality pancreatic images; time at which uptake of the radiotracer was seen [5, 11]: ≤ 30 min; time of optimum pancreatic uptake and pancreas/liver ratio [5, 11]: 3 to 4 h; accumulation of radiolabel in pancreas [5, 12]: high degree of accumulation of radiolabel in normal human pancreas; discrimination of pancreas from other abdominal organs [5, 12]: good discrimination of pancreas from other abdominal organs
3 | Cc1cc([125I])cc(CN(C)CCCN2CCCCC2)c1O [ERC 90, N[3(1-piperidino)propyl]-N-methyl-2-hydroxy-3-methyl-5-iodobenzylamine] | 0.22 ± 0.04 | 0.50 ± 0.11 | 0.80 ± 0.18 | 2.12 ± 0.35 | 6.70 ± 1.42 | higher pancreas uptakes than did HIPDM | significantly higher | lower | 1.32 ± 0.34 percent administered dose per | 2.73 ± 0.59 percent administered dose per | 3.62 ± 0.84 percent administered dose per | 5.35 ± 0.88 percent administered dose per | 5.59 ± 0.60 percent administered dose per | –
4 | C[75Se]CCC(N)C(=O)O (stereo not shown) [Se-75 selenomethionine] | – | – | – | – | – | – | – | – | – | – | – | – | – | pancreatic visualisation ([6]; in vivo): inconsistency of pancreatic visualisation; patient radiation dose ([6]; selenium-75): high patient radiation dose

Continued, in another order:

Row | P/L (percent dose in pancreas / percent dose in liver) ([1]; 5 minutes after administration) | P/L (percent dose in pancreas / percent dose in liver) [1, 7] | P/L (percent dose in pancreas / percent dose in liver) ([1]; 1 hour after administration) | P/L (percent dose in pancreas / percent dose in liver) ([1]; 4 hours after administration) | P/L (percent dose in pancreas / percent dose in liver) ([1]; 24 hours after administration) | pancreas uptake compared with HIPDM [1, 9] | pancreas/liver ratios compared with HIPDM [1] | pancreas uptake compared with HIPDM ([1]; early time periods) | Compound | Pancreas uptake (mean percent administered dose per organ) ([1]; 5 minutes after administration) | Pancreas uptake (mean percent administered dose per organ) [1, 7] | Pancreas uptake (mean percent administered dose per organ) ([1]; 1 hour after administration) | Pancreas uptake (mean percent administered dose per organ) ([1]; 4 hours after administration) | Pancreas uptake (mean percent administered dose per organ) ([1]; 24 hours after administration) | further results
5 | 0.21 ± 0.03 | 0.32 ± 0.04 | 0.46 ± 0.06 | 0.95 ± 0.14 | 1.18 ± 0.47 | – | – | – | Cc1cc([125I])cc(CN(C)CCCN(C)C)c1O [HIPDM, N,N,N'-trimethyl-N'[2-hydroxy-3-methyl-5-iodobenzyl]-1,3-propanediamine, reference compound] | – | – | – | – | – | localisation in the pancreas [2]: some localisation of HIPDM in the pancreas; differentiation between pancreatic and liver retention [3, 8]: difficult; pancreas/liver ratios [3, 8]: not optimal for clinical use; suitability for clinical use ([3]; human): unsatisfactory for clinical use
6 | 0.22 ± 0.04 | 0.61 ± 0.06 | 0.67 ± 0.19 | 1.61 ± 0.26 | 4.03 ± 1.76 | – | significantly higher | – | CCN(CC)CCCN(C)Cc1cc([125I])cc(C)c1O [ERC 94, N[3(diethylamino)propyl]-N-methyl-2-hydroxy-3-methyl-5-iodobenzylamine] | 1.56 ± 0.26 percent administered dose per | 2.86 ± 0.48 percent administered dose per | 3.45 ± 0.90 percent administered dose per | 4.65 ± 0.67 percent administered dose per | 3.76 ± 1.62 percent administered dose per | pancreas uptakes compared with HIPDM ([1]; all time periods studied except 24 hours): lower than those of HIPDM
